Experimental data taken from article PMC7579840 (Journal of medicinal chemistry, 2019).
Like-named read-outs stand apart in the source and are kept apart here.

Key:
[1] = target: T1, human CK2α1−335 (Homo sapiens, UniProt P68400); experiment: Isothermal titration calorimetry; type: binding; conditions: ITC
T1 sequence (P68400 1-335): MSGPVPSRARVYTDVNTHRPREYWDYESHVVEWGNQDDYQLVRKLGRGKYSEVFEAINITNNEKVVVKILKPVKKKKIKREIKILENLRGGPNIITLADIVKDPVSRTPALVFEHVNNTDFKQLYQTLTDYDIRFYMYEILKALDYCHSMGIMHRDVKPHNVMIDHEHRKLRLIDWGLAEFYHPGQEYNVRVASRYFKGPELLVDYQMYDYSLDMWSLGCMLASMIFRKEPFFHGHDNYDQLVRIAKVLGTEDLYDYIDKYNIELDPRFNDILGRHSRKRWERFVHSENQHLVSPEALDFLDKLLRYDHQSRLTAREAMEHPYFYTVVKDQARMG

[2] = target: CK2α2β2 (peptide substrate) (Homo sapiens, UniProt P68400); experiment: Radiometric kinase assay with CK2α2β2, peptide substrate; type: biochemical; conditions: peptide 29 and peptide M substrates (Figure 2B)
[3] = tested on: HeLa pEGFP-CK2α cells; experiment: Subcellular localization of EGFP-CK2α, cell imaging; type: cell-based; conditions: 12 h
[4] = target: Dyrk1A (Homo sapiens, UniProt Q13627); experiment: Kinase selectivity panel; conditions: 5 μM 27
[5] = tested on: panel of 54 kinases; experiment: Overall selectivity in kinase panel; conditions: 5 μM
[6] = target: CK2α (Homo sapiens, UniProt P68400); conditions: previous hit compounds included for comparison; cited from earlier work
[7] = tested on: panel of 54 kinases; conditions: overall selectivity; cited from earlier work

Sequence of CK2α (P68400 whole entry): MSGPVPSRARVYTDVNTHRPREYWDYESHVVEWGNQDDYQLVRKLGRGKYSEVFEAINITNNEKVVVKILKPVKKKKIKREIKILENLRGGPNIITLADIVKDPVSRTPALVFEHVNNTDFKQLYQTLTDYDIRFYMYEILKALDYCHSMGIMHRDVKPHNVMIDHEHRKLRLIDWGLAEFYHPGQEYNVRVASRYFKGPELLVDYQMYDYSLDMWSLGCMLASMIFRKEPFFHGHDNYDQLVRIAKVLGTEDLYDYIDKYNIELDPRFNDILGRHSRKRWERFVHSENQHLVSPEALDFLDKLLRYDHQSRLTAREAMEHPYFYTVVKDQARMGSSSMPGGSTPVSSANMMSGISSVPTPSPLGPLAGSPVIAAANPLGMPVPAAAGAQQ
Sequence of CK2α2β2 (peptide substrate) (P68400 whole entry): as above
Sequence of CK2α2β2 (peptide substrate) (P67870 whole entry partner): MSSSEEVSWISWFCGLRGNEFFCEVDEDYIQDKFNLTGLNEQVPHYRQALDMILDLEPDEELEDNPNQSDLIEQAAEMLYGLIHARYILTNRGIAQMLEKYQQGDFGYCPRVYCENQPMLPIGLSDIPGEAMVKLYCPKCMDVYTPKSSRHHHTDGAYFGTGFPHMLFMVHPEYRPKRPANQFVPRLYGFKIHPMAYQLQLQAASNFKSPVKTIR

SMILES: O=C(O)c1ccc(Nc2nc(-c3ccc4ccccc4c3)cs2)cc1O [compound 27, 2-Hydroxy-4-((4-(naphthalen-2-yl)thiazol-2-yl)amino)benzoic acid]
- TΔS [1]: 2.53 ± 0.29 kcal/mol
- inhibition of holoenzyme complex compared with CK2α [2]: same potency
- subcellular localization of EGFP-CK2α ([3]; 15 μM): nucleolar localization pattern of EGFP-CK2α was mostly retained
- inhibition of Dyrk1A [4]: only weakly inhibited
- Gini coefficient [5]: 0.78

SMILES: O=C(O)c1cccc(Nc2nc(-c3cccc([N+](=O)[O-])c3)cs2)c1 [compound 1, 3-((4-(3-nitrophenyl)thiazol-2-yl)amino)benzoic acid]
- IC50 [6]: 30 µM

SMILES: O=C(O)c1ccc2c(c1)nc(Nc1cccc(Cl)c1)c1ccncc12 [CX-4945, 5-(3-chlorophenylamino)benzo[c][2,6]naphthyridine-8-carboxylic acid, reference compound]
- subcellular localization of EGFP-CK2α ([3]; 8 μM): significant translocation of EGFP-CK2α from the nucleoli to the nuclear matrix and the cytoplasm compartments
- Gini coefficient [7]: 0.67
